Measured values reported in US11136291B2, “Antifungal compounds and uses thereof” (Dana-Farber Cancer Institute, Inc., priority 2016, dated 2021).
In brackets after ≈: the same amount, converted by molar mass. Entries after “also recorded” stand apart in the source; their conditions may differ.

Columns and labels:
[1] = test system: Candida parapsilosis DSY473; assay: Broth dilution MIC; settings: ATCC22019
Procedure: (§1) Antifungal susceptibility testing was carried out using broth dilution assays which examined effects of two-fold dilutions of compounds on cellular growth. The minimum inhibitory concentration (MIC) was defined as the drug concentration at which the optical density was equal to or decreased more than 50% from that of the drug-free culture.

[2] = test system: C. glabrata adherence to CHO-Lec2 cells; assay: Yeast adherence to epithelial CHO-Lec2 cells; settings: PDR1^L280F mutant; 30 μM iKIX1 or 40 μM ketoconazole
[3] = test system: PDRE-dependent luciferase gene transcription; format: cell-based, Saccharomyces cerevisiae; settings: 40 μM ketoconazole
[4] = test system: Saccharomyces cerevisiae DSY2094; assay: Broth dilution MIC
Procedure: as §1

[5] = test system: Candida tropicalis DSY472; assay: Broth dilution MIC; settings: ATCC75
Procedure: as §1

S. cerevisiae = assay: Cell growth inhibition screen with 5 μM ketoconazole; settings: in the presence of 5 μM ketoconazole
Procedure: S. cerevisiae SEY6210 wild-type strains were grown in YPD (U % yeast extract, 2% bacto peptone, 2% dextrose) at 30° C. with shaking overnight until saturation. The next day, cultures were inoculated to an OD600 of 0.0007 and grown for 17 hours, to an OD600˜0.5, 384-well plates were set up in duplicate with either YPD alone or with YPD containing a final concentration of 5 μM ketoconazole. 384-well plates contained 5 two-fold dilutions of each compound, corresponding to a final concentration range of 20 μg/mL to 1.25 μg/mL. Wells were inoculated with cells to a final OD600 of 0.00025 in YPD.

CgGal11A KIX domain = target: T1, CgGal11A KIX domain (Candida glabrata, UniProt Q6FRS9); assay: Fluorescence polarization (FP) binding/competition assay, CgPdr1 AD30 with CgGal11A KIX; settings: calculated from measured Kd and IC50; read-out: apparent Ki
T1 construct: other: compared with iKIX1; other: GST-CgGal11A KIX 3 μM, 30 nM FITC-CgPdr1 AD30; Kd of CgPdr1 AD30 for CgGal11A KIX domain; other: FP titration, 30 nM FITC-CgPdr1 AD30; Kd of the CgPdr1 AD for the CgGal11A KIX domain; apparent Ki; fused on or other part: N-terminal His6-GST tag
Procedure: A fluorescein-tagged 30 amino acid C-terminal activation domain of CgPdr1 (FITC-[…] (SEQ ID NO: 1)) CgPdr1 AD30 was purchased as a synthetic peptide from Pepide2.0. The CgGal11A KIX domain was expressed as a His6-GST fusion protein and purified by affinity chromatography with Ni-NTA resin (Qiagen) and size exclusion chromatography (Sephadex 75, Pharmacia). […] For small molecule screening, fluorescein-CgPdr1 AD30 was held at a concentration of 30 nM and the GST-tagged CgGal11A KIX was at a concentration of 1 μM (above the Kd). The screen was carried out in duplicate and the volume in each well was 25 μL.
To measure the dissociation constant (Kd) of CgPdr1 AD30, FITC labeled CgPdr1 AD30 was held at a concentration of 30 nM and the GST-tagged CgGal11A KIX was prepared with concentrations ranging from 0 to 300 μM. The IC50 for iKIX-1 binding was measured with GST-tagged CgGal11A KIX held at a constant 3 μM concentration, iKIX-1 was titrated from 0 to 1000 μM and 30 nM FITC-labeled CgPdr1 AD30 was added subsequently with an HP D300 digital dispenser (Tecan Group. Maennerdorf, Switzerland). All experiments were carried out in duplicate and the s.d. is reported at each point on the plot.
The FP titration curve of the CgPdr1 AD30 was fitted to GraphPad Prisms (La Jolla, Calif., USA) One site-total binding equation (equation 1). […]

[6] = test system: azole-activated and Pdr1-dependent genes; assay: RNA-Seq; settings: 10 μM iKIX1 with 40 μM ketoconazole
Procedure: Cells were grown in YPD at 30° C. with shaking overnight (24 hours) then washed twice in 2× volume of Milli-Q water before being resuspended in YP to an OD600 of 0.8. Cells were grown with shaking overnight (˜16 hours) before splitting and treatment with vehicle (DMSO) or 10 μM iKIX1. Cells were grown with shaking another 8 hours before harvest of non-azole induced samples. Remaining cultures were induced to a final concentration of 40 μM ketoconazole and harvested after 15 minutes by centrifugation at 4,000 rpm for 4 minutes at 4° C. Media was aspirated and cells were snap frozen on dry ice. RNA isolation was performed as previously described (see, e.g., Martin R, Moran G P, Jacobsen I D, Heyken A, Domey J, Sullivan D J, et al. The Candida albicans-specific gene EED1 encodes a key regulator of hyphal extension. PLoS One.6(4):e18394. PMCID: 3075580); RNA was then DNase treated using recombinant DNasel. […] Sequencing was carried out on Illumina HiSeq 2500, resulting in approximately 17.68 million of 50 bp paired-end reads per sample. STAR aligner was used to map sequencing reads to transcripts in the reference genomes (S288C for Saccharomyces cerevisiae and draft genome from isolate DSY562 for Candida glabrata) (see, e.g., Dobin A, Davis C A, Schlesinger F, Drenkow J, Zaleski C, Jha S, et al. STAR: ultrafast universal RNA-seq aligner. Bioinformatics.29(1):15-21. PMCID: 3530905). […]

[7] = test system: Gal11/Med15 recruitment to Pdr1-regulated target genes; assay: Chromatin immunoprecipitation (ChIP) assay; format: cell-based, Saccharomyces cerevisiae
Procedure: ChIP was performed according to standard procedures (see. e.g., McConnell A D, Gelbart M E, Tsukiyama T. Histone fold protein Dls1p is required for Isw2-dependent chromatin remodeling in vivo. Mol Cell Biol. 2004; 24(7):2605-13. PMCID: 371119). Briefly, cells were grown to saturation then washed 2 times with sterilized Milli-Q (Millipore) water, resuspended to an OD600 of 0.8 in YP (1% yeast extract, 2% bacto peptone) and then grown for 6 hours at 30° C. with shaking in the presence of DMSO (vehicle) or iKIX1. Cultures were induced with ketoconazole to a final concentration of 40 μM and harvested at the times indicated. 2 mL of culture was harvested at 0′ and 15′ for matched transcription samples; RNA was prepared as described below. Cells were fixed with 1% formaldehyde (final) for 15 minutes with swirling and then quenched with 125 mM glycine (final) for 5 min. with swirling. Cells were pelleted, washed with TBS+125 mM glycine and then TBS. Cells were lysed in buffer containing 50 mM HEPES, pH 7.5, 140 mM NaCl, 1% Triton X-100, 0.1% sodium deoxycholate, 1 mM EDTA and protease inhibitors and 0.5 mm glass beads. Glass beads were removed by centrifugation before cell lysate was sonicated to obtain 150 to 400 base pair fragments. […]

T1 sequence (Q6FRS9 whole entry, looked up, the tested form may be a part): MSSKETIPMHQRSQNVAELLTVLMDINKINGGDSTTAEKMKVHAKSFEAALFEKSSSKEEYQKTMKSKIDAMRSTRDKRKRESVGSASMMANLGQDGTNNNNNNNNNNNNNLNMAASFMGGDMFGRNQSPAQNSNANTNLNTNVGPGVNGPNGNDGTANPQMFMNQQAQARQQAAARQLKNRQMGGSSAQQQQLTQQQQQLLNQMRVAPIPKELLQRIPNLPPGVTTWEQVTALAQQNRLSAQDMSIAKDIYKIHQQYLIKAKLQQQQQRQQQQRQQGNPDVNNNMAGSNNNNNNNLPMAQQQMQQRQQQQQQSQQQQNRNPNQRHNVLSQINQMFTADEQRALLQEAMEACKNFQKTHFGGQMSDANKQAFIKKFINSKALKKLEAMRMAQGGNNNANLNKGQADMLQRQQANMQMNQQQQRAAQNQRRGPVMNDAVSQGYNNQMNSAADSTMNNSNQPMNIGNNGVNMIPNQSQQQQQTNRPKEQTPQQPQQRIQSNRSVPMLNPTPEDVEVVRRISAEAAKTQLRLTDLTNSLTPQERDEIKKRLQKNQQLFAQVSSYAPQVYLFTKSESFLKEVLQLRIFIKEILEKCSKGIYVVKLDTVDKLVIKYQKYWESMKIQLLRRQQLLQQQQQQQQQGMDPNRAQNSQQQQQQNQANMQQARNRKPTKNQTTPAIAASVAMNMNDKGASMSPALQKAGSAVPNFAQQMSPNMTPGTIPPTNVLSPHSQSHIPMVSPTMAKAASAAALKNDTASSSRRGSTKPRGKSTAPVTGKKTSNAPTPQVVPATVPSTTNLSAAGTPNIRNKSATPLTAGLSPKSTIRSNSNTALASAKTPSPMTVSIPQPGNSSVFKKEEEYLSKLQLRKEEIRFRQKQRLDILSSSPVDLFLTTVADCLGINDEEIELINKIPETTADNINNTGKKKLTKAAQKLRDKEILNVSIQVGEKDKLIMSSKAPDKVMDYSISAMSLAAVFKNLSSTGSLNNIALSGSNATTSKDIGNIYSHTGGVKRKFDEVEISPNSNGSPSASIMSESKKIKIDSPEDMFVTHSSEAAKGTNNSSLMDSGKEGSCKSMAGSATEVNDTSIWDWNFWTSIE

## N#CCC(=O)NNC(=S)Nc1ccc(Cl)c(Cl)c1 [iKIX1, 2-(2-Cyanoacetyl)-N-(3,4-dichlorophenyl)hydrazinecarbothioamide]
[1]
  MIC: 25 µM (≈ 7.58 µg/mL)
[2]
  relative adherence to epithelial cells: reduce adherence; also recorded: reduced adherence to levels similar to a PDR1 wild-type strain
[3]
  ketoconazole-induced luciferase activity (in words): able to block this induction in a concentration-dependent manner; also recorded: inhibits ketoconazole (KET)-induced upregulation of luciferase activity in a dose-responsive manner
[4]
  MIC: 12.5 µM (≈ 3.79 µg/mL)
[5]
  MIC: 6.25 µM (≈ 1.89 µg/mL)
S. cerevisiae
  cell growth: inhibits cell growth in a concentration-dependent manner
CgGal11A KIX domain
  Ki: 18.1 µM
[6]
  expression of azole-activated and Pdr1-dependent genes: strongly blunted expression of many azole-activated and Pdr1-dependent genes
[7]; 20 μM iKIX1
  constitutive occupancy of Pdr1 at Pdr1-regulated target genes: did not impede the constitutive occupancy of Pdr1
[7]; iKIX1 pre-treatment
  ketoconazole-induced recruitment of Gal11/Med15 to promoters of PDR5 and SNQ2: ketoconazole-induced recruitment of Gal11/Med15 was abrogated
